Assay [1] concerns HSV-1. The experiment in a line: qPCR of viral genome replication in HSV-1 infected HCE cells. It is filed as cell-based, HSV-1 (KOS strain). Conditions: MOI 0.1, inhibitor 10 μM. On the procedure: (§1) All cells were cultured at 37° C. and 5% CO2, and supplemented with 100 U/ml penicillin and 100 μg/ml streptomycin. Human corneal epithelial cells immortalized with hTERT (hTCEpi; Bahassi et al., 2008, Oncogene 27:3977-3985) were grown in complete KGM-2 medium. Human corneal epithelial cells immortalized with SV40 large T antigen (HCE; Araski-Sasaki et al., 1995, Invest. Ophthalmol. Visual Sci. 36:614-621), as well as African green monkey kidney fibroblasts (CV-1; Jensen et al., 1964, Proc. Natl. Acad. Sci. USA 52:53-59), were grown in DMEM medium supplemented with 10% FBS. KOS strain (Smith, Proc. Soc. Exp. Biol. Med. Soc. Exp. Biol. Med. 115:814-816) of HSV-1 was used in all infections. All viral stocks were titered on CV-1 monolayers.
Tetracyline-inducible Chk2 knockdown cell line was derived by lentivirally transducing HCE cells with a construct harboring shRNA sequence against the Chk2 transcript. The Chk2 shRNA sequence was acquired from Sigma (NM_007194.2-129951c1) and targets the following region: 5′-[…]-3′ (SEQ ID NO:1). Lentiviral particles were produced in 293T packaging cells (Dull et al., 1998, J. Virol. 72:8463-8471). […]
Total DNA from infected cells and corneas was isolated using the DNeasy Blood & Tissue Kit (QIAGEN, Hilden, Germany). Real time quantitative PCR was performed with SYBR Green (Bio-Rad, Hercules, Calif.). […]
For orientation: Real-time PCR tracks product formation cycle by cycle.

The test system of assay [2] is HSV-1. The experiment in a line: Plaque assay of supernatants from HSV-1 infected HCE cells. It is filed as cell-based, HSV-1 (KOS strain). The settings on record: MOI 0.1, 10 μM, vs controls. How it is done:
as §1
Cells were grown in 6-well plates and used in experiments at […] confluence. Drug treatments were administered 45 min prior to infection and continued for the entire duration of each experiment. Unless indicated otherwise, Chk2 inhibitor II (>98% purity by HPLC) was used at 10 μM final concentration, and phosphonoacetic acid (PAA) at 400 μg/ml (both from Sigma-Aldrich, St. Louis, Mo.). Chk2 inhibitor II was dissolved in DMSO such that the final concentration of DMSO in both Chk2 inhibitor II and mock treatment was 0.1%. […]

Assay [3] deals with dlsptk strain of HSV-1 (TK mutant). The experiment in a line: qPCR of genome replication of drug-resistant HSV-1 in hTCEpi cells. It is filed as cell-based. On the procedure: All cells were cultured at 37° C. and 5% CO2 and supplemented with 100 U/mL penicillin and […]. Human corneal epithelial cells immortalized with hTERT (hTCEpi; Robertson, et al., 2005, Invest Ophthalmol Vis Sci. 46:470-478) were grown in complete keratinocyte growth medium 2 (KGM-2; Lonza, Basel, Switzerland). African green monkey kidney fibroblasts (CV-1; American Type Culture Collection, Manassas, Va.) were grown in Dulbecco's modified Eagle's medium (DMEM; Cellgro, Manassas, Va.) supplemented with 10% FBS. The KOS strain of HSV-1 was used in the in vitro and ex vivo infections, whereas McKrae strain was used for in vivo mouse experiments, and TK mutant dlsptk strain (Coen et al., 1989, Proc Natl Acad Sci USA 86:4736-4740) was used in the drug resistance experiments. All viral stocks were titered on CV-1 monolayers.
The following strains of HSV-1 were used: KOS, ICPO-null, HFEM, and tsB7. Subconfluent monolayers of cells were grown in six-well plates. Drug treatments were administered 45 minutes prior to infection and continued for the entire duration of each experiment. Unless indicated otherwise, KU-55933 (Batch No. 5, 99.7% purity; Tocris Bioscience, Bristol, UK) was used at 10 μM final concentration, phosphonoacetic acid (PAA) at 400 μg/mL (Sigma-Aldrich, St. Louis, Mo.), and acyclovir at 50 μg/mL (Sigma-Aldrich). KU-55933 was dissolved in dimethyl sulfoxide (DMSO), and the final concentration of DMSO in both KU-55933 and mock treatment in the in vitro and the ex vivo experiments was 0.1%.
Viral genome replication and transcription were measured by quantitative PCR (qPCR). Total DNA and RNA from infected cells were isolated using the DNeasy Blood & Tissue Kit and the RNeasy Mini Kit, respectively (QIAGEN, Hilden, Germany). RNA was converted to cDNA using qScript (Quanta BioSciences, Gaithersburg, Md.). […] Transcription of the three gene families was measured with primers for RL2 (ICPO), UL30 (DNA polymerase catalytic subunit), and UL44 (gC), with reference primers for the 18S ribosomal RNA (rRNA).

Regarding `NC(=O)c1ccc2[nH]c(-c3ccc(Oc4ccc(Cl)cc4)cc3)nc2c1` [Chk2 inhibitor II, 2-(4-(4-chlorophenoxy)phenyl)-1H-benzimidazole-5-carboxamide], in assay [1], the “viral genome replication (qPCR)” value was “profoundly reduced”. In addition, in assay [2], the “generation of infectious viral particles (plaque assay)” value was “reduction”.
As to `O=c1cc(-c2cccc3c2Sc2ccccc2S3)oc(N2CCOCC2)c1` [KU-55933, 2-(morpholin-4-yl)-6-(thianthren-1-yl)-pyran-4-one], in assay [3] (MOI 0.1, 16 hpi, KU-55933 10 μM, acyclovir 50 μg/mL), the “genome replication of dlsptk strain (qPCR)” value was “markedly suppress”. Moreover, in assay [3] (MOI 0.1, KU-55933 10 μM, 16 hpi), the “inhibitory effect on dlsptk infection compared with KOS infection” value is recorded as “as potent as its effect on KOS infection”.

The values above are taken from patent US20210023089A1, “Compositions Useful for Treating Herpes Simplex Keratitis, and Methods Using Same” (priority 2013, published 2021).
